Measured values published in patent US20240158370A1, “CK1 alpha AND DUAL CK1 alpha / GSPT1 DEGRADING COMPOUNDS” (Innovo Therapeutics, Inc., priority 2022, published 2024).

Experiments:
CK1α = molecular target: T1, CK1α (Homo sapiens, UniProt P48729+Q96SW2); assay: HiBiT degradation assay, CK1α, Procedure A; format: cell-based; details: six hours incubation
T1 construct: CSNK1A1-HiBit KI HEK293(LgBit) Cells; host or cells: HEK293(LgBit) knock-in cells
How it was run: (§1)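 Cells in DMEM+10% FBS at 1×10^6 cells/ml were added to pre-spotted compound (10-point dose response, 10 μM to 0.005 μM, 0.1% DMSO) and incubated 6 h at 37° C. Nano-Glo HiBiT lytic reagent was added and luminescence read. DC50 and Ymin came from 4-parameter curve fits.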

GSPT1 = GSPT1 (Homo sapiens, UniProt P15170+Q96SW2); assay: HiBiT degradation assay, GSPT1, Procedure A; format: cell-based; design: HiBit-GSPT1 KI HEK293(LgBit) Cells; host or cells: HEK293(LgBit) knock-in cells; details: six hours incubation
Chain of GSPT1 (P15170 whole entry): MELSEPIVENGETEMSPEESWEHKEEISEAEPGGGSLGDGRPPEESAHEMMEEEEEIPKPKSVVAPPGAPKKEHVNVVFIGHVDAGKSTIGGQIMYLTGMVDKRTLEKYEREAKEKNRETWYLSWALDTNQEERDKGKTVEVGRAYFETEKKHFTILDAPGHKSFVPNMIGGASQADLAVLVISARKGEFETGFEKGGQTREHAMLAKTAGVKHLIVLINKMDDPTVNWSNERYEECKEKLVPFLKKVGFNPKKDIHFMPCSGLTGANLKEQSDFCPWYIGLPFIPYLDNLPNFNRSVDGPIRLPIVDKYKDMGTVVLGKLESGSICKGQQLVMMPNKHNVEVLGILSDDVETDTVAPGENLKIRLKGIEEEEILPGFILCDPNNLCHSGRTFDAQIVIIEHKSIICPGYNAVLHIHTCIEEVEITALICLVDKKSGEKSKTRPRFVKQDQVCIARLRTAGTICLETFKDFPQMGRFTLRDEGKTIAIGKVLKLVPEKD
Chain of GSPT1 (Q96SW2 whole entry): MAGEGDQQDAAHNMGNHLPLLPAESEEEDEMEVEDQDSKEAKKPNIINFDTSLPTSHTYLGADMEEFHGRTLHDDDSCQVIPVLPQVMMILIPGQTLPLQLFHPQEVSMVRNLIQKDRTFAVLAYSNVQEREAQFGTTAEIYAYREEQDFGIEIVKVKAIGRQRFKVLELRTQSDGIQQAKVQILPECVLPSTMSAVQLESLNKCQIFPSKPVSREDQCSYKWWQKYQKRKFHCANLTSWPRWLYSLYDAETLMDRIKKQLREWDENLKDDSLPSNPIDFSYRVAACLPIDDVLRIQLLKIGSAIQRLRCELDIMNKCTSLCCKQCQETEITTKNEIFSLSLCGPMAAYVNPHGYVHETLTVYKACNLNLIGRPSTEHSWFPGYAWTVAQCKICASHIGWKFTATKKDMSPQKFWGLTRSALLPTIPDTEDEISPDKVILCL
Chain of GSPT1 (Q16531 whole entry partner): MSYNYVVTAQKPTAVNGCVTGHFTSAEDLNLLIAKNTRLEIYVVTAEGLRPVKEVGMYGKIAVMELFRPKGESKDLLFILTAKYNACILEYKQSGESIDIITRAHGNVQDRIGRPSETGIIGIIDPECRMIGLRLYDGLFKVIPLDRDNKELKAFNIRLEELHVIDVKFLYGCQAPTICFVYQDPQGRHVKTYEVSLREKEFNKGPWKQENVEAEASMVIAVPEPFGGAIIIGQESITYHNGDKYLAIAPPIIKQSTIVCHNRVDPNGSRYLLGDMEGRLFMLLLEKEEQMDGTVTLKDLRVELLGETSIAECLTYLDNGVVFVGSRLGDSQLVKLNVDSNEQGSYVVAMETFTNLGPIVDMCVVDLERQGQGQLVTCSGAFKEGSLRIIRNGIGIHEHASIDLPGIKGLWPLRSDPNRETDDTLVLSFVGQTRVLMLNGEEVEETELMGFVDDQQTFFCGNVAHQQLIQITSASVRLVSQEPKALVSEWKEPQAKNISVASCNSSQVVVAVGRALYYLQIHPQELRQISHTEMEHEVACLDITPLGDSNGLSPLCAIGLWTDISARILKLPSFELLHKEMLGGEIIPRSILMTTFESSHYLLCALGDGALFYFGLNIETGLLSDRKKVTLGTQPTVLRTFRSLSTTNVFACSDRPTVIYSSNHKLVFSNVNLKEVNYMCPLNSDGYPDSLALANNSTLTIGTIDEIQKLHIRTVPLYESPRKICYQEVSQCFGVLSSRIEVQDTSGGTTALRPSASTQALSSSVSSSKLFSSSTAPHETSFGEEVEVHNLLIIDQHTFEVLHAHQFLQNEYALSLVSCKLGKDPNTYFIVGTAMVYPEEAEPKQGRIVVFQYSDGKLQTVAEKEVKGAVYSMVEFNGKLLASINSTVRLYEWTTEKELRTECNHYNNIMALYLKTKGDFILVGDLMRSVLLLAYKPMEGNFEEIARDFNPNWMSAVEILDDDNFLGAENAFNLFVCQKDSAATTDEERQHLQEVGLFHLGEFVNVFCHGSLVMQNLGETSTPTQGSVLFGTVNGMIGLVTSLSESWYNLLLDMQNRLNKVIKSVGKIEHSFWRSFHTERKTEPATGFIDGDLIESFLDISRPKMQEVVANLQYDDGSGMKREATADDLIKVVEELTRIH
How it was run: as §1

T1 sequence (P48729 whole entry): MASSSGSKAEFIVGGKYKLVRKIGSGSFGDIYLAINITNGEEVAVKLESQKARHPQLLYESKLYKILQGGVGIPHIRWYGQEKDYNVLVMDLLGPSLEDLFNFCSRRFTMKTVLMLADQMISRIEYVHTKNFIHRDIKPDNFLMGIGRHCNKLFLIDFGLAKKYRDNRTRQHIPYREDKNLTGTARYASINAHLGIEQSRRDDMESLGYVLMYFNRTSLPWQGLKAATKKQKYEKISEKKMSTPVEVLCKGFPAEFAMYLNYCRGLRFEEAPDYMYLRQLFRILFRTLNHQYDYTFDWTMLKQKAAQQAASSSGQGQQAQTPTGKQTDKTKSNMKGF
T1 sequence (Q96SW2 whole entry): as the sequence (Q96SW2 whole entry) above
T1 sequence (Q16531 whole entry partner): as the sequence (Q16531 whole entry partner) above

| Structure (SMILES) | CK1α Ymin (CK1α) | DC50 (CK1α) [nM] | DC50 (GSPT1) [nM] | GSPT1 Ymin (GSPT1) |
| --- | --- | --- | --- | --- |
| CN(C)C(=O)c1cccc(-c2c(-c3ccc4c(c3)CN(C3CCC(=O)NC3=O)C4=O)ncn2C)c1 (stereo not shown) [Example 290] | D (D = >10- 25% remaining) | ≥ 25 | ≥ 25 | F (F = >75-100% remaining) |
| Cn1cnc(-c2ccc3c(c2)CN(C2CCC(=O)NC2=O)C3=O)c1-c1cccc(CN2CCCC2)c1 (stereo not shown) [Example 295] | D (D = >10- 25% remaining) | ≥ 25 | ≥ 25 | F (F = >75-100% remaining) |
| Cn1cnc(-c2ccc3c(c2)CN(C2CCC(=O)NC2=O)C3=O)c1-c1cccc(N2CCCCC2)c1 (stereo not shown) [Example 296] | E (E = >25-75% remaining) | < 25 | ≥ 25 | F (F = >75-100% remaining) |
| Cn1cnc(-c2ccc3c(c2)CN(C2CCC(=O)NC2=O)C3=O)c1-c1cccc(N2CCOCC2)c1 (stereo not shown) [Example 297] | E (E = >25-75% remaining) | < 25 | ≥ 25 | F (F = >75-100% remaining) |
| Cn1cnc(-c2ccc3c(c2)CN(C2CCC(=O)NC2=O)C3=O)c1-c1ccc(C(=O)NC2CCCC2)cc1 (stereo not shown) [Example 300] | D (D = >10- 25% remaining) | ≥ 25 | ≥ 25 | F (F = >75-100% remaining) |
| Cn1cnc(-c2ccc3c(c2)CN(C2CCC(=O)NC2=O)C3=O)c1-c1cccc2c1CCC2 (stereo not shown) [Example 301] | D (D = >10- 25% remaining) | < 25 | ≥ 25 | F (F = >75-100% remaining) |
| Cn1cnc(-c2ccc3c(c2)CN(C2CCC(=O)NC2=O)C3=O)c1-c1cccc(C(=O)NC2CCCCC2)c1 (stereo not shown) [Example 302] | E (E = >25-75% remaining) | ≥ 25 | ≥ 25 | F (F = >75-100% remaining) |
| COc1cccc(COc2cccc(-c3c(-c4ccc5c(c4)CN(C4CCC(=O)NC4=O)C5=O)ncn3C)c2)c1 (stereo not shown) [Example 303] | E (E = >25-75% remaining) | < 25 | ≥ 25 | F (F = >75-100% remaining) |
| Cn1cnc(-c2ccc3c(c2)CN(C2CCC(=O)NC2=O)C3=O)c1-c1ccc(C(=O)NCc2ccccc2)c(Cl)c1 (stereo not shown) [Example 307] | D (D = >10- 25% remaining) | ≥ 25 | < 25 | F (F = >75-100% remaining) |
| CN1CCN(Cc2cccc(-c3c(-c4ccc5c(c4)CN(C4CCC(=O)NC4=O)C5=O)ncn3C)c2)CC1 (stereo not shown) [Example 312] | D (D = >10- 25% remaining) | ≥ 25 | ≥ 25 | F (F = >75-100% remaining) |
| Cn1cnc(-c2ccc3c(c2)CN(C2CCC(=O)NC2=O)C3=O)c1-c1ccc(N2CCOCC2)c(Cl)c1 (stereo not shown) [Example 315] | D (D = >10- 25% remaining) | < 25 | ≥ 25 | F (F = >75-100% remaining) |
| Cn1cnc(-c2ccc3c(c2)CN(C2CCC(=O)NC2=O)C3=O)c1C1CC1 (stereo not shown) [Example 316] | D (D = >10- 25% remaining) | < 25 | < 25 | F (F = >75-100% remaining) |
| Cc1nocc1-c1c(-c2ccc3c(c2)CN(C2CCC(=O)NC2=O)C3=O)ncn1C (stereo not shown) [Example 320] | D (D = >10- 25% remaining) | < 25 | ≥ 25 | F (F = >75-100% remaining) |
| Cc1c(-c2c(-c3ccc4c(c3)CN(C3CCC(=O)NC3=O)C4=O)ncn2C)cnn1C (stereo not shown) [Example 322] | C (C = 0-10% remaining) | < 25 | < 25 | F (F = >75-100% remaining) |
| Cc1nn(C)cc1-c1c(-c2ccc3c(c2)CN(C2CCC(=O)NC2=O)C3=O)ncn1C (stereo not shown) [Example 323] | E (E = >25-75% remaining) | ≥ 25 | ≥ 25 | F (F = >75-100% remaining) |
| Cc1cc(-c2c(-c3ccc4c(c3)CN(C3CCC(=O)NC3=O)C4=O)ncn2C)n(C)n1 (stereo not shown) [Example 324] | E (E = >25-75% remaining) | ≥ 25 | ≥ 25 | F (F = >75-100% remaining) |
| Cn1cnc(-c2ccc3c(c2)CN(C2CCC(=O)NC2=O)C3=O)c1-c1cnc(C#N)nc1 (stereo not shown) [Example 325] | E (E = >25-75% remaining) | ≥ 25 | ≥ 25 | F (F = >75-100% remaining) |
| Cn1cnc(-c2ccc3c(c2)CN(C2CCC(=O)NC2=O)C3=O)c1-c1cnn(C2CC2)c1 (stereo not shown) [Example 326] | C (C = 0-10% remaining) | < 25 | < 25 | F (F = >75-100% remaining) |

The remaining lines, values ahead:

| CK1α Ymin (CK1α) | DC50 (CK1α) [nM] | DC50 (GSPT1) [nM] | GSPT1 Ymin (GSPT1) | Structure (SMILES) |
| --- | --- | --- | --- | --- |
| C (C = 0-10% remaining) | < 25 | < 25 | E (E = >25-75% remaining) | Cn1cnc(-c2ccc3c(c2)CN(C2CCC(=O)NC2=O)C3=O)c1-c1ccc(N2CCCC2)cc1 (stereo not shown) [Example 288] |
| C (C = 0-10% remaining) | ≥ 25 | ≥ 25 | F (F = >75-100% remaining) | CN(C)C(=O)c1ccc(-c2c(-c3ccc4c(c3)CN(C3CCC(=O)NC3=O)C4=O)ncn2C)cc1 (stereo not shown) [Example 289] |
| E (E = >25-75% remaining) | < 25 | ≥ 25 | F (F = >75-100% remaining) | Cn1cnc(-c2ccc3c(c2)CN(C2CCC(=O)NC2=O)C3=O)c1-c1cccc(-c2ccccc2)c1 (stereo not shown) [Example 291] |
| E (E = >25-75% remaining) | ≥ 25 | < 25 | F (F = >75-100% remaining) | Cn1cnc(-c2ccc3c(c2)CN(C2CCC(=O)NC2=O)C3=O)c1-c1ccc(F)c(C(F)(F)F)c1 (stereo not shown) [Example 293] |
| D (D = >10- 25% remaining) | < 25 | < 25 | E (E = >25-75% remaining) | Cn1cnc(-c2ccc3c(c2)CN(C2CCC(=O)NC2=O)C3=O)c1-c1ccc(-c2ccccc2)cc1 (stereo not shown) [Example 294] |
| E (E = >25-75% remaining) | < 25 | ≥ 25 | F (F = >75-100% remaining) | Cn1cnc(-c2ccc3c(c2)CN(C2CCC(=O)NC2=O)C3=O)c1-c1ccc(-c2ccc(O)cc2)cc1 (stereo not shown) [Example 298] |
| C (C = 0-10% remaining) | < 25 | ≥ 25 | F (F = >75-100% remaining) | Cn1cnc(-c2ccc3c(c2)CN(C2CCC(=O)NC2=O)C3=O)c1-c1ccc(-c2ccc(C#N)cc2)cc1 (stereo not shown) [Example 299] |
| D (D = >10- 25% remaining) | < 25 | < 25 | F (F = >75-100% remaining) | Cn1cnc(-c2ccc3c(c2)CN(C2CCC(=O)NC2=O)C3=O)c1-c1ccc(OCc2ccccc2)c(Cl)c1 (stereo not shown) [Example 304] |
| C (C = 0-10% remaining) | < 25 | < 25 | F (F = >75-100% remaining) | Cn1cnc(-c2ccc3c(c2)CN(C2CCC(=O)NC2=O)C3=O)c1-c1ccc(-c2ccncc2)cc1 (stereo not shown) [Example 305] |
| E (E = >25-75% remaining) | ≥ 25 | ≥ 25 | E (E = >25-75% remaining) | Cn1cnc(-c2ccc3c(c2)CN(C2CCC(=O)NC2=O)C3=O)c1-c1ccc(S(C)(=O)=O)cc1 (stereo not shown) [Example 306] |
| D (D = >10- 25% remaining) | < 25 | ≥ 25 | F (F = >75-100% remaining) | Cn1cnc(-c2ccc3c(c2)CN(C2CCC(=O)NC2=O)C3=O)c1-c1ccc(Oc2cccnc2)cc1 (stereo not shown) [Example 308] |
| D (D = >10- 25% remaining) | < 25 | < 25 | F (F = >75-100% remaining) | Cn1cnc(-c2ccc3c(c2)CN(C2CCC(=O)NC2=O)C3=O)c1-c1ccc(CN2CCOCC2)cc1 (stereo not shown) [Example 309] |
| D (D = >10- 25% remaining) | < 25 | ≥ 25 | F (F = >75-100% remaining) | Cn1cnc(-c2ccc3c(c2)CN(C2CCC(=O)NC2=O)C3=O)c1-c1ccc(OCc2ccccc2)cc1 (stereo not shown) [Example 310] |
| D (D = >10- 25% remaining) | < 25 | < 25 | E (E = >25-75% remaining) | Cn1cnc(-c2ccc3c(c2)CN(C2CCC(=O)NC2=O)C3=O)c1-c1ccc(COc2ccccc2)cc1 (stereo not shown) [Example 311] |
| D (D = >10- 25% remaining) | ≥ 25 | ≥ 25 | F (F = >75-100% remaining) | CN1CCN(Cc2ccc(-c3c(-c4ccc5c(c4)CN(C4CCC(=O)NC4=O)C5=O)ncn3C)cc2)CC1 (stereo not shown) [Example 313] |
| E (E = >25-75% remaining) | ≥ 25 | ≥ 25 | F (F = >75-100% remaining) | Cn1cnc(-c2ccc3c(c2)CN(C2CCC(=O)NC2=O)C3=O)c1-c1ccc(C(=O)N2CCOCC2)cc1 (stereo not shown) [Example 314] |
| D (D = >10- 25% remaining) | < 25 | ≥ 25 | F (F = >75-100% remaining) | Cn1cnc(-c2ccc3c(c2)CN(C2CCC(=O)NC2=O)C3=O)c1-c1ccncc1 (stereo not shown) [Example 317] |
| E (E = >25-75% remaining) | < 25 | < 25 | F (F = >75-100% remaining) | Cn1cnc(-c2ccc3c(c2)CN(C2CCC(=O)NC2=O)C3=O)c1-c1ccnn1C (stereo not shown) [Example 318] |
| D (D = >10- 25% remaining) | < 25 | ≥ 25 | F (F = >75-100% remaining) | Cc1cncc(-c2c(-c3ccc4c(c3)CN(C3CCC(=O)NC3=O)C4=O)ncn2C)c1 (stereo not shown) [Example 321] |
